One assay deals with T1, hyaluronidase.
T1 construct: gene SPAM1
Put plainly: hyaluronic acid turbidity, absorbance […] nm. The class given is biochemical. Conditions: 37 °C; hyaluronic acid substrate pH 5.35; reference compound; printed interval does not contain the value.

A further assay concerns the target T2, collagenase (type IV).
T2 construct: gene colG; known from the kit
The assay can be described thus: fluorogenic EnzChek gelatinase/collagenase kit. The format is biochemical. The following applies: per kit instructions; positive control. The source says:
fluorogenic EnzChek gelatinase/collagenase kit on collagenase (type IV)

For `O=C(O[C@@H]1Cc2c(O)cc(O)cc2O[C@@H]1c1cc(O)c(O)c(O)c1)c1cc(O)c(O)c(O)c1` [EGCG, epigallocatechin gallate], the Hyaluronidase on hyaluronidase is 119.1 (126.1–320.4) µg/mL. The Collagenase at collagenase (type IV) is 4.8 (4.1–5.5) µg/mL.

Values taken from PMC7997182, “Unravelling the Dermatological Potential of the Brown Seaweed Carpomitra costata” (Marine Drugs, 2021).
